Data reported in patent US7119221B2, “Cycloalkyl-hydroxyl compounds and compositions for cholesterol management and related uses” (Esperion Therapeutics, Inc., priority 2003, dated 2006).

Tests used:
obese female Zucker rats = experiment: Oral daily treatment of chow fed obese female Zucker rats for fourteen days: serum lipids, glycemic control indicators, body weight; type: in vivo, rat; conditions: oral gavage, 14 days; for % wt. gain: obese female Zucker rats; for Glucose, Percent of Pre-treatment: blood glucose after 6 hour fast; for HDL-C, Percent of Pre-treatment / Insulin, Percent of Pre-treatment / Non-HDL-C, Percent of Pre-treatment: serum; for BHA, Percent of Pre-treatment: serum beta-hydroxy butyric acid; for NEFA, Percent of Pre-treatment: serum non-esterified fatty acids; for HDL-C/non-HDL-C: serum ratio; for TC, Percent of Pre-treatment: serum total cholesterol; for TG, Percent of Pre-treatment: serum triglycerides
Experimental: In a number of different experiments, illustrative compounds of the invention are administered daily at a dose of up to 100 mg/kg to chow fed obese female Zucker rats for fourteen days in the morning by oral gavage in 1.5% carboxymethylcellulose/0.2% Tween 20 or 20% ethanol/80% polyethylene glycol (dosing vehicles). Animals are weighed daily. Animals are allowed free access to rodent chow and water throughout the study except on days of blood sampling where food is restricted for six hours prior to blood sampling. Blood glucose is determined after the 6 hour fast in the afternoon without anesthesia from a tail vein. Serum is also prepared from pretreatment blood samples subsequently obtained from the orbital venous plexus (with O2/CO2 anesthesia) and following the fourteenth dose at sacrifice from the heart following O2/CO2 anesthesia. Serums are assayed for lipoprotein cholesterol profiles, triglycerides, total cholesterol, Non-HDL cholesterol, HDL cholesterol, the ratio of HDL cholesterol to that of Non-HDL cholesterol, insulin, non-esterified fatty acids, and beta-hydroxy butyric acid. The percent body weight gain and the ratio of liver to body weight is also determined. These are shown as absolute values or as a percent change of the pretreatment values in Table 1.

primary rat hepatocytes = experiment: Inhibition of lipid synthesis ([1-14C]-acetate incorporation) in primary cultures of rat hepatocytes; type: cell-based; conditions: Hepatocyte, 4 hour incubation with [1-14C]-acetate, 0-300 μM compound
Experimental: Compounds were tested for inhibition of lipid synthesis in primary cultures of rat hepatocytes. Male Sprague-Dawley rats were anesthetized with intraperitoneal injection of sodium pentobarbital (80 mg/kg). Rat hepatocytes were isolated essentially as described by the method of Seglen (Seglen, P. O. Hepatocyte suspensions and cultures as tools in experimental carcinogenesis. J. Toxicol. Environ. Health 1979, 5, 551–560). Hepatocytes were suspended in Dulbecco's Modified Eagles Medium containing 25 mM D-glucose, 14 mM HEPES, 5 mM L-glutamine, 5 mM leucine, 5 mM alanine, 10 mM lactate, 1 mM pyruvate, 0.2% bovine serum albumin, 17.4 mM non-essential amino acids, 20% fetal bovine serum, 100 nM insulin and 20 μg/mL gentamycin) and plated at a density of 1.5×10^5 cells/cm^2 on collagen-coated 96-well plates. Four hours after plating, media was replaced with the same media without serum. Cells were grown overnight to allow formation of monolayer cultures. Lipid synthesis incubation conditions were initially assessed to ensure the linearity of [1-^14C]-acetate incorporation into hepatocyte lipids for up to 4 hours. Hepatocyte lipid synthesis inhibitory activity was assessed during incubations in the presence of 0.25 μCi [1-^14C]-acetate/well (final radiospecific activity in assay is 1 Ci/mol) and 0, 1, 3, 10, 30, 100 or 300 μM of compounds for 4 hours. At the end of the 4-hour incubation period, medium was discarded and cells were washed twice with ice-cold phosphate buffered saline and stored frozen prior to analysis. To determine total lipid synthesis, 170 μl of MicroScint-E® and 50 μl water was added to each well to extract and partition the lipid soluble products to the upper organic phase containing the scintillant. Lipid radioactivity was assessed by scintillation spectroscopy in a Packard TopCount NXT.

| SMILES | IC50 (primary rat hepatocytes) [µM] | % wt. gain (obese female Zucker rats; 100 mg/kg/day) [%] | Glucose, Percent of Pre-treatment (obese female Zucker rats; 100 mg/kg/day) [%] | HDL-C, Percent of Pre-treatment (obese female Zucker rats; 100 mg/kg/day) [%] | Insulin, Percent of Pre-treatment (obese female Zucker rats; 100 mg/kg/day) [%] | Non-HDL-C, Percent of Pre-treatment (obese female Zucker rats; 100 mg/kg/day) [%] | BHA, Percent of Pre-treatment (obese female Zucker rats; 100 mg/kg/day) [%] | NEFA, Percent of Pre-treatment (obese female Zucker rats; 100 mg/kg/day) [%] | HDL-C/non-HDL-C (obese female Zucker rats; 100 mg/kg/day) | TC, Percent of Pre-treatment (obese female Zucker rats; 100 mg/kg/day) [%] | TG, Percent of Pre-treatment (obese female Zucker rats; 100 mg/kg/day) [%] | other results |
| --- | --- | --- | --- | --- | --- | --- | --- | --- | --- | --- | --- | --- |
| CC(C)(CCCCC(O)CCCCC1(C(=O)O)CCC1)C(=O)O (stereo not shown) [A] | 12 | – | – | – | – | – | – | – | – | – | – | % wt. gain (obese female Zucker rats; 30 mg/kg/day): 12.3%; Glucose, Percent of Pre-treatment (obese female Zucker rats; 30 mg/kg/day): −1%; HDL-C, Percent of Pre-treatment (obese female Zucker rats; 30 mg/kg/day): 76%; Insulin, Percent of Pre-treatment (obese female Zucker rats; 30 mg/kg/day): −8%; Non-HDL-C, Percent of Pre-treatment (obese female Zucker rats; 30 mg/kg/day): −20%; BHA, Percent of Pre-treatment (obese female Zucker rats; 30 mg/kg/day): 150%; NEFA, Percent of Pre-treatment (obese female Zucker rats; 30 mg/kg/day): −30%; HDL-C/non-HDL-C (obese female Zucker rats; 30 mg/kg/day): 4; TC, Percent of Pre-treatment (obese female Zucker rats; 30 mg/kg/day): 37%; TG, Percent of Pre-treatment (obese female Zucker rats; 30 mg/kg/day): −23% |
| O=C(O)C1(CCCCCC(O)CCCCCC2(C(=O)O)CC2)CC1 [B] | 0.9 | 4.2 | −24 | 54 | −51 | −94 | 254 | −23 | 153 | 13 | −91 | – |
| O=C(O)C1(CCCCCC(O)CCCCCC2(C(=O)O)CCCC2)CCCC1 [Compound 6.33, 1-[11-(1-Carboxycyclopentyl)-6-hydroxyundecyl]-1-cyclopentanecarboxylic acid] | – | – | – | – | – | – | – | – | – | – | – | melting point: 76 to 77 °C |
| CC(C)(CCCCC(O)CCCCC1(C(=O)O)CC1)C(=O)O (stereo not shown) [Compound E] | 3 | 10.4 | −2 | 162 | 2 | 1 | 223 | −24 | 5 | 101 | −34 | – |
| CC(C)(CCCCCC(O)CCCCCC1(C(=O)O)CC1)C(=O)O (stereo not shown) [D] | 1.4 | −1.7 | −13 | 15 | −70 | −98 | 195 | −44 | 785 | −11 | −97 | – |
| O=C(O)C1(CCCCC(O)CCCCC2(C(=O)O)CC2)CC1 [F] | 1.8 | – | – | – | – | – | – | – | – | – | – | – |
